Results from patent US4657897A, “N^6 -substituted adenosines for treating pain” (Warner-Lambert Company, priority 1985, dated 1987).
Like-named read-outs stand apart in the source and are kept apart here.

Key:
adenosine A1 receptor = biological target: T1, adenosine A1 receptor (Rattus norvegicus, UniProt P25099); assay: Adenosine Receptor Binding--A1 Receptor Affinity (RBA1), [3H]-CHA binding, rat whole brain membranes; parameters: species or system rat (male Long Evans); conditions: 1.0 nM [3H]-CHA, 25° C., 1 h
T1 construct: Whole brain minus cerebellum and brainstem from male Long Evans rats; from tissue; host or cells: rat whole brain minus cerebellum and brainstem (male Long Evans), membranes
T1 sequence (P25099 1-326): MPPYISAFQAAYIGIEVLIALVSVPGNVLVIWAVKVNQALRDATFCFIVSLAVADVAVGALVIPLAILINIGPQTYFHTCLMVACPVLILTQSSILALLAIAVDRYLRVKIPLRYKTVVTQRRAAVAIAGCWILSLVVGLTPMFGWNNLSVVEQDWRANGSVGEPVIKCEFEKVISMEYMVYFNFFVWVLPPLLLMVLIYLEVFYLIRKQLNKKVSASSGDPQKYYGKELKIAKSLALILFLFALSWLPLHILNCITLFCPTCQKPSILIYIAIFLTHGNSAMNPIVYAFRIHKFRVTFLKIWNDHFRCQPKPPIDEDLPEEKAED
Protocol: Adenosine Receptor Binding--A1 Receptor Affinity (RBA1)
Whole brain minus cerebellum and brainstem from male Long Evans rats (150-200 g) was homogenized in 30 volumes of ice-cold 0.05M Tris-HCl buffer pH 7.7 using a Brinkman Polytron PT-10, (setting number 6 for 20 seconds) and centrifuged for ten minutes at 20,000×g (Sorvall RC-2), 4° C. The supernatant was discarded, and the pellet was resuspended and centrifuged as before. The pellet was resuspended in 20 ml Tris-HCl buffer containing two International Units/ml of adenosine deaminase (Sigma type III from calf intestinal mucosa), incubated at 37° C. for 30 minutes, then subsequently at 0° C. for ten minutes. The homogenate was again centrifuged, and the final pellet was resuspended in ice-cold 0.05M Tris-HCl buffer pH 7.7 to a concentration of 20 mg/ml original wet tissue weight and used immediately.
Tissue homogenate (10 mg/ml) was incubated in 0.05M Tris-HCl buffer pH 7.7 containing 1.0 nM [^3 H]-N^6 -cyclohexyladenosine[^3 H]-CHA) with or without test agents in triplicate for one hour at 25° C. Incubation volume was 2 ml. Unbound [^3 H]-CHA was separated by rapid filtration under reduced pressure through Whatman glass fiber (GF/B) filters. The filters were rinsed three times with 5 ml of ice cold 0.05M Tris-HCl buffer pH 7.7. The radio-labeled ligand retained on the filter was measured by liquid scintillation spectrophotometry after shaking the filters for one hour or longer on a mechanical shaker in 10 ml of Beckman Ready-Solv HP scintillation cocktail.
Nonspecific binding was defined as the binding which occurred in the presence of 1 mM theophylline. The concentration of test agent which inhibited 50% of the specific binding (IC50) was determined by nonlinear computer curve fit. The Scatchard plot was calculated by linear regression of the line obtained by plotting the amount of radioligand bound (pmoles/gram of tissue) [formula] Since the amount of radioligand bound was a small fraction of the total amount added, free radioligand was defined as the concentration (nM) of radioligand added to the incubation mixture. The Hill coefficient was calculated by linear regression of the line obtained by plotting the log of the bound radioligand vs the log of the [formula] The maximal number of binding sites (Bmax) was calculated from the Scatchard plot.

adenosine A2 receptor = biological target: T2, adenosine A2 receptor (Rattus norvegicus, UniProt P30543); assay: Adenosine Receptor Binding--A2 Receptor Affinity (RBA2), [3H]NECA binding, rat striatal membranes; parameters: species or system rat (mixed sex Sprague-Dawley; male Long-Evans); conditions: 4 nM [3H]NECA, 50 nM N6-cyclopentyladenosine, 25° C., 60 min
T2 construct: 5 mg original tissue weight of rat weight of rat striatal membranes; tissue Pel-Freez (Rogers, Ark.) for the brains; host or cells: rat striatum (Sprague-Dawley; Long-Evans gave essentially identical results), membranes
Protocol: Adenosine Receptor Binding--A2 Receptor Affinity (RBA2)
Brains from 200-500 g mixed sex Sprague-Dawley rats were purchased from Pel-Freez (Rogers, Ark.). […] Brains were thawed and then kept on ice while the striata were dissected out. Striata were disrupted in 10 vol of ice-cold 50 mM Tris.HCl (pH 7.7 at 25° C., pH 8.26 at 5° C.) (Tris) for 30 seconds in a Polytron PT-10 (Brinkmann) at setting 5. The suspension was centrifuged at 50,000 xg for ten minutes, the supernatant discarded, the pellet resuspended in 10 vol ice-cold Tris as above, recentrifuged, resuspended at 1 g/5 ml, and stored in plastic vials at -70° C. […] When needed, tissue was thawed at room temperature, disrupted in a Polytron, and kept on ice until used.
Test compounds were dissolved at 10 mM in dimethylsulfoxide on the same day as the experiment, and diluted in dimethylsulfoxide to 100× the final incubation concentration. […] [^3 H]NECA was diluted to 40 nM in Tris. […] After all additions, the rack of tubes was vortexed, and the tubes were then incubated for 60 min at 25° C. in a shaking water bath. The rack of tubes was vortexed an additional time halfway through the incubation.
Incubations were terminated by filtration through 2.4 cm GF/B filters under reduced pressure. Each tube was filtered as follows: the contents of the tube were poured onto the filter, 4 ml of ice-cold Tris were added to the tube and the contents poured onto the filter, and the filter was washed twice with 4 ml of ice-cold Tris. The filtration was complete in about twelve seconds. Filters were put in scintillation vials, 8 ml of Formula 947 scintillation fluid added, and the vials left overnight, shaken, and counted in a liquid scintillation counter at 40% efficiency.
The IC50 was calculated by weighted nonlinear least squares curve-fitting to the mass-action equation. [formula] where Y is cpm bound
T is cpm total binding without drug
S is cpm specific binding without drug
D is the concentration of drug
K is the IC50 of the drug
Weighting factors were calculated under the assumption that the standard deviation was proportional to the predicted value of Y. Nonspecific binding was treated as a very large (infinite) concentration of drug in the computer analysis.

[1] = Mouse Activity and Screen Test (MAST), screen test failure (ST); format: in vivo, mouse (Swiss-Webster, male); conditions: for minimal effective dose: Mus musculus, ip, read-out: MAST ST LAD; for Inhibition of screen test failure: percent of mice falling off the screen
Protocol: Treatments are administered intraperitoneally one hour prior to testing. […] Compounds are dissolved or suspended in 0.2% Methocel. Control animals are injected with Methocel.
The compounds are identified in the Examples.

[2] = lowest dose at which an A rating is achieved, screen test, intraperitoneal, 1 h prior to testing

T2 sequence (P30543 whole entry): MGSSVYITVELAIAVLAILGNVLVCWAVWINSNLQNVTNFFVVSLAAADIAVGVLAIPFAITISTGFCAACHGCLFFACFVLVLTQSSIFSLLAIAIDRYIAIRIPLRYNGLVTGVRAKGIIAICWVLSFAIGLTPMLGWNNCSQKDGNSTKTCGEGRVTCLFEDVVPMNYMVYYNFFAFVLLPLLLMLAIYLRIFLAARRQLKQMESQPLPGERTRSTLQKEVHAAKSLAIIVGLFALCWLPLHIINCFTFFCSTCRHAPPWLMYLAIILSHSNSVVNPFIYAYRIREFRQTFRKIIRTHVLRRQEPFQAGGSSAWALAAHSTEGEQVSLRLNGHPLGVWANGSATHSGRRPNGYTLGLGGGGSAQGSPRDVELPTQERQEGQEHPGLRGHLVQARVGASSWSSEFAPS

IC50 (adenosine A1 receptor) | IC50 (adenosine A2 receptor) | Compound | minimal effective dose [1, 2] | minimal effective dose ([1]; 1 h) | Inhibition of screen test failure ([1]; 10 mg/kg intraperitoneal) | Inhibition of screen test failure ([1]; 30 mg/kg intraperitoneal) | Inhibition of screen test failure ([1]; 100 mg/kg intraperitoneal)
518 nM | 9520 nM | OC[C@H]1O[C@@H](n2cnc3c(NCCCC(c4ccccc4)c4ccccc4)ncnc32)[C@H](O)[C@@H]1O [Example 6, N^6-(4,4-Diphenylbutyl)adenosine] | > 100 mg/kg |  |  |  | 
66 nM | 41 nM | CC(CNc1ncnc2c1ncn2[C@@H]1O[C@H](CO)[C@@H](O)[C@H]1O)(c1ccccc1)c1ccccc1 [Example 8, N^6-(2,2-Diphenylpropyl)adenosine] | > 100 mg/kg |  |  |  | 
 |  | OC[C@H]1O[C@@H](n2cnc3c(NCC(c4ccccc4)c4cccc(Cl)c4)ncnc32)[C@H](O)[C@@H]1O (stereo partly drawn) [Example 14, N^6-(2-(3-Chlorophenyl)-2-phenylethyl)adenosine] | > 100 mg/kg |  |  |  | 
79 nM | 4600 nM | COC(=O)C(CNc1ncnc2c1ncn2[C@@H]1O[C@H](CO)[C@@H](O)[C@H]1O)(c1ccccc1)c1ccccc1 [Example 24, N^6-(2-Carbomethoxy-2,2-diphenylethyl)adenosine] | > 30 mg/kg |  |  |  | 
69 nM | 293 nM | Nc1nc(NCC(O)(c2ccccc2)c2ccccc2)c2ncn([C@@H]3O[C@H](CO)[C@@H](O)[C@H]3O)c2n1 [Example 23, N^6-(2,2-Diphenyl-2-hydroxyethyl)-2-aminoadenosine] | > 100 mg/kg |  |  |  | 
13 nM | 17 nM | Cc1cccc(C(CNc2ncnc3c2ncn3[C@@H]2O[C@H](CO)[C@@H](O)[C@H]2O)c2ccccc2)c1 (stereo partly drawn) [Example 9, N^6-(2-(3-Methylphenyl)-2-phenylethyl)adenosine] | 100 mg/kg |  |  |  | 
 |  | O=[N+]([O-])c1ccc(C(CNc2ncnc3c2ncn3[C@@H]2O[C@H](CO)[C@@H](O)[C@H]2O)c2ccc([N+](=O)[O-])cc2)cc1 [Example 20] |  | > 100 mg/kg |  |  | 
27 nM | 90 nM | OC[C@H]1O[C@@H](n2cnc3c(NCC(c4ccccc4)c4ccc(Cl)cc4)ncnc32)[C@H](O)[C@@H]1O (stereo partly drawn) [Example 15, N^6-(2-(4-Chlorophenyl)-2-phenylethyl)adenosine] | > 100 mg/kg |  |  |  | 
53 nM | 166 nM | CC(=O)OC[C@H]1O[C@@H](n2cnc3c(NCC(c4ccccc4)c4ccccc4)ncnc32)[C@H](OC(C)=O)[C@@H]1OC(C)=O [Example 25, 2',3',5'-Tri-O-acetyl-N^6-(2,2-diphenylethyl)adenosine] | > 100 mg/kg |  |  |  | 
69 nM | 210 nM | OC[C@H]1O[C@@H](n2cnc3c(NCC(c4ccccc4)c4ccc(F)cc4)nc(Cl)nc32)[C@H](O)[C@@H]1O (stereo partly drawn) [Example 11, N^6-(2-(4-Fluorophenyl)-2-phenylethyl)-2-chloroadenosine] | > 100 mg/kg |  |  |  | 
846 nM | 5650 nM | OC[C@H]1O[C@@H](n2cnc3c(NC(c4ccccc4)c4ccccc4)ncnc32)[C@H](O)[C@@H]1O [Example 5, N^6 -Diphenylmethyladenosine] | > 100 mg/kg |  |  |  | 
94 nM | 303 nM | Nc1nc(NCC(c2ccccc2)c2ccc(F)cc2)c2ncn([C@@H]3O[C@H](CO)[C@@H](O)[C@H]3O)c2n1 (stereo partly drawn) [Example 12, N^6-(2-(4-Fluorophenyl)-2-phenylethyl)-2-amino adenosine] | > 100 mg/kg |  |  |  | 
89 nM | 275 nM | Nc1nc(NCC(c2ccccc2)c2ccccc2)c2ncn([C@@H]3O[C@H](CO)[C@@H](O)[C@H]3O)c2n1 [Example 4, N^6-(2,2-Diphenylethyl)-2-aminoadenosine] | > 100 mg/kg |  | 0% | 11% | 22%
16 nM | 94 nM | OC[C@H]1O[C@@H](n2cnc3c(NCC(c4ccc(F)cc4)c4ccc(F)cc4)ncnc32)[C@H](O)[C@@H]1O [Example 13, N^6-(2,2-Di-(4-fluorophenyl)ethyl)adenosine] | > 100 mg/kg |  |  |  | 
1920 nM | 2120 nM | Nc1nc(NCC(c2ccc(Cl)cc2)c2ccc(Cl)cc2)c2ncn([C@@H]3O[C@H](CO)[C@@H](O)[C@H]3O)c2n1 [Example 18] |  |  |  |  | 
223 nM | 319 nM | Nc1nc(NCC(c2ccccc2)c2ccc(Cl)cc2)c2ncn([C@@H]3O[C@H](CO)[C@@H](O)[C@H]3O)c2n1 (stereo partly drawn) [Example 16] | > 100 mg/kg |  |  |  | 
14 nM | 71 nM | OC[C@H]1O[C@@H](n2cnc3c(NCC(c4ccccc4)c4ccc(F)cc4)ncnc32)[C@H](O)[C@@H]1O (stereo partly drawn) [Example 10, N^6-(2-(4-Fluorophenyl)-2-phenylethyl)adenosine] | > 100 mg/kg |  |  |  | 
1230 nM | 3840 nM | O=C(OC[C@H]1O[C@@H](n2cnc3c(NCC(c4ccccc4)c4ccccc4)ncnc32)[C@H](OC(=O)c2ccccc2)[C@@H]1OC(=O)c1ccccc1)c1ccccc1 [Example 26, 2',3',5'-Tri-O-benzoyl-N^6-(2,2-diphenylethyl)adenosine] | > 100 mg/kg |  |  |  | 
242 nM | 919 nM | CC1(C)O[C@@H]2[C@H](O1)[C@@H](CO)O[C@H]2n1cnc2c(NCC(c3ccccc3)c3ccccc3)ncnc21 [Example 29, 2',3'-O-Isopropylidene-N^6-(2,2-diphenylethyl)adenosine] | > 100 mg/kg |  |  |  | 
147 nM | 3290 nM | OC[C@H]1O[C@@H](n2cnc3c(NCCCCC(c4ccccc4)c4ccccc4)ncnc32)[C@H](O)[C@@H]1O [Example 7, N^6-(5,5-Diphenylpentyl)adenosine] | > 100 mg/kg |  |  |  | 
 | ~20 nM | O=P(O)(O)OC[C@H]1O[C@@H](n2cnc3c(NCC(c4ccccc4)c4ccccc4)ncnc32)[C@H](O)[C@@H]1O [Example 28, N^6-(2,2-Diphenylethyl)adenosine-5'-phosphate] | > 30 mg/kg |  |  |  | 
